Source: patent US8835124B2, “Method for treating cancer with agents that bind phosphorylated CDC27” (The Nemours Foundation, priority 2011, dated 2014)

System: DAOY cells
Experiment: LDH release cytotoxicity assay
Format: cell-based, human
Details: DAOY cells treated for 16 hours
Description: Lactate dehydrogenase (LDH) levels as a measure of cell death were determined using the Non-radioactive Cytotoxicity kit (Promega, Madison, Wis.) according to manufacturer's instructions. […] Cell debris was removed by centrifugation. Viable cell LDH was collected from cells lysed by freezing for 15 minutes at −70° C. followed by thawing at 37° C. The medium was collected and cleared from cell debris by centrifugation. The relative release of LDH was determined as the ratio of released LDH versus total LDH from viable cells.
Data represent mean±SEM of three independent experiments.

COc1cc(C=CC(C)=O)ccc1O [half-curcumin, 4-(4-hydroxy-3-methoxyphenyl)-3-buten-2-one]
cell death (LDH release): failed to induce cell death
